Measured values: article PMC5449454, “Anti-Double-Stranded DNA IgG Participates in Renal Fibrosis through Suppressing the Suppressor of Cytokine Signaling 1 Signals” (Frontiers in Immunology, 2017)

Assays:
[1] = system: kidneys of SCID mice; experiment: Renal mRNA levels by real-time PCR, SCID mice; assay type: in vivo; details: i.v.
Text: Renal biopsies were obtained from patients with LN (n = 7), who had serum positivity of anti-dsDNA IgG (Table S1 in Supplementary Material). The diagnosis of LN was made based on the histological features of renal biopsies. For normal human controls, sera and non-lesional tissues were taken from patients (n = 5) who underwent surgical nephrectomy due to renal cell carcinoma or renal rupture (Table S1 in Supplementary Material). There was no statistical difference in term of age between the LN patients and the controls (p > 0.05). […] The MRL/lpr and MRL/MpJ mice (female, 12 or 24 weeks old, n = 5 each group) as well as SCID mice (female, 8 weeks old, n = 5 each group) were bred in the animal facility of Xi’an Jiaotong University Health Science Center. Urine, sera, and renal tissues were harvested from MRL/lpr and MRL/MpJ mice. Proteinuria was quantitated by the Coomassie brilliant blue method ([32]). All data about MRL/lpr and MRL/MpJ mice referred to that at age of 24 weeks unless otherwise noted. These SCID mice received intravenous injections of anti-dsDNA or control IgG at a dose of 100 µg twice weekly, which lasted for 4 weeks (n = 5 each group). Then, both serum and kidney samples were collected from SCID mice. This study was carried out in accordance with the recommendations of the guidelines of the Hospital Research Ethics Committee with written informed consent from all subjects. All subjects gave written informed consent in accordance with the Declaration of Helsinki. The protocol was approved by the Hospital Research Ethics Committee.
As previously described ([8]), total RNA was extracted from fresh tissues or cultured cells, followed by reverse transcription. The 7900HT Fast PCR System (Applied Biosystems, Carlsbad, CA, USA) was used for PCR, and SYBR Green Master Mixes (Invitrogen, Grand Island, NY, USA) was used as fluorescent dye. The sequences of primers (Jieqing Biotech) are listed in Table S2 in Supplementary Material.

[2] = system: mesangial cells; experiment: Cell viability (PrestoBlue), mesangial cells; assay type: cell-based, murine; details: D-form ALW 1 µg/ml, 2 days
Method: (§1) By using a HiTrap purification kit (GE Healthcare, Port Washington, NY, USA) ([8]), anti-dsDNA IgG was purified from the culture supernatants of murine WJ31 hydridoma clone (IgG2a; Jieqing Biotech). Control murine IgG (IgG2a; Jieqing Biotech) was verified by enzyme-linked immunosorbent assay (ELISA) to determine that there was no binding to DNA antigen (data not shown). Cells were starved routinely before the 2-day stimulation of anti-dsDNA IgG or control IgG (2 µg/ml). In some experiments, mesangial cells were stimulated with anti-dsDNA IgG (2 µg/ml) that was premixed with D-form (ALWPPNLHAWVP) or scrambled (PLPHNPWVLAAW) ALW peptide (1 µg/ml). The cell viability of three types of cells was measured using PrestoBlue viability reagent (Life Technologies, Carlsbad, CA, USA).
(§2) Mesangial Glomerular Tubular cells endothelial epithelial
(§3) Supplementary Figure S7. Cell viability assays of kidney cells. (A) Murine cells were cultured in vitro, and received control or anti-dsDNA IgG stimulation (2 µg/ml, 2 days). (B) Similarly, these cells were also stimulated with scrambled or D-form ALW peptide (1 µg/ml, 2 days). The cell viability was measured using PrestoBlue viability reagent. Data were from three independent experiments. Data points and error bars […]
(§4) (also on this page, place not known: µ g/ml,2 µ g/ml,2 Cell viability (%) Cell viability (%))

[3] = system: proximal tubular epithelial cells; experiment: Cell viability (PrestoBlue), proximal tubular epithelial cells; assay type: cell-based, murine; details: D-form ALW 1 µg/ml, 2 days
Method: as §1, §2, §3, §4

[4] = system: anti-dsDNA IgG binding to SOCS1-KIR peptide; experiment: Inhibition ELISA, anti-dsDNA IgG binding to SOCS1-KIR peptide; set-up: species or system murine; details: anti-dsDNA IgG 2 µg/ml pre-incubated with serially diluted peptide (0.04 to 80 µg/ml); three independent experiments
Method: (§5) Common ELISAs (for binding to dsDNA or peptide) and inhibition ELISAs were performed as previously described ([8], [35]). Briefly, the KIR ELISA was carried out by adding biotinylated KIR peptide (DTHFRTFRSHSDYRRI, 5 µg/ml) to streptavidin-coated 96-well plates. For inhibition with KIR (or ALW) peptide, anti-dsDNA IgG (2 µg/ml) was pre-incubated with serially diluted peptide (from 0.04 to 80 µg/ml), and then transferred to antigen-coated 96-well plates. Alkaline phosphatase-conjugated goat anti-mouse IgG (2 µg/ml; Southern Biotech) was used as secondary antibody. Similarly, for inhibition with anti-dsDNA IgG, the FITC-labeled JAK2 loop peptide (LPQDKEYYKVKEP, 0.2 µg/ml) was pre-incubated with serially diluted anti-dsDNA IgG (from 0.02 to 20 µg/ml) before transfer to KIR-coated plates, which were detected for fluorescein intensity under a Perkin Elmer Reader (Winpact Scientific, Irvine, CA, USA). Cell surface ELISA was performed by growing mesangial cells in 96-well plates ([8], [35]). All peptides were synthesized by Sangon Biotech Company (Shanghai, China).

[5] = system: SOCS1, JAK2 and STAT1 in kidneys of SCID mice; experiment: Renal SOCS1/JAK2/STAT1 proteins by Western blotting, SCID mice; assay type: in vivo; details: i.v., n = 5, versus anti-dsDNA IgG alone
Text: Renal biopsies were obtained from patients with LN (n = 7), who had serum positivity of anti-dsDNA IgG (Table S1 in Supplementary Material). The diagnosis of LN was made based on the histological features of renal biopsies. For normal human controls, sera and non-lesional tissues were taken from patients (n = 5) who underwent surgical nephrectomy due to renal cell carcinoma or renal rupture (Table S1 in Supplementary Material). There was no statistical difference in term of age between the LN patients and the controls (p > 0.05). […] The MRL/lpr and MRL/MpJ mice (female, 12 or 24 weeks old, n = 5 each group) as well as SCID mice (female, 8 weeks old, n = 5 each group) were bred in the animal facility of Xi’an Jiaotong University Health Science Center. Urine, sera, and renal tissues were harvested from MRL/lpr and MRL/MpJ mice. Proteinuria was quantitated by the Coomassie brilliant blue method ([32]). […]
Fresh tissues and cell cultures were extracted for lysates with the addition of protease inhibitor cocktail (Thermo Scientific, Waltham, MA, USA). […] The band intensities were quantitated by ImageJ 1.61u software (National Institutes of Health, Bethesda, MD, USA) and normalized to β-actin values accordingly. The intensities of blank groups were set as 1 (baseline), and the relative intensities were calculated in other groups.

[6] = system: anti-dsDNA IgG binding to dsDNA antigen; experiment: Inhibition ELISA, anti-dsDNA IgG binding to dsDNA antigen; set-up: species or system murine; details: anti-dsDNA IgG 2 µg/ml pre-incubated with serially diluted peptide (0.04 to 80 µg/ml); three independent experiments
Method: as §5

[7] = D-form ALW plus anti-dsDNA IgG, n = 5, versus anti-dsDNA IgG alone
[8] = anti-dsDNA IgG pre-mixed with D-form ALW, n = 5

In the case of “ALWPPNLHAWVP [D-form ALW, ALW peptide with two terminal residues A and P replaced with D-form ones]”, the “renal JAK2 mRNA level, ALW plus anti-dsDNA IgG” value [1, 7] is reported as “reduced”, the “renal SOCS1 mRNA level, ALW plus anti-dsDNA IgG” value [1, 7] is reported as “not affected” and the “renal STAT1 mRNA level, ALW plus anti-dsDNA IgG” value [1, 7] is reported as “reduced”. The “renal PDGFB mRNA level, ALW plus anti-dsDNA IgG” value [1, 8] was “substantial decrease”, the “renal TGF-β1 mRNA level, ALW plus anti-dsDNA IgG” value [1, 8] was “substantial decrease” and the “renal TWEAK mRNA level, ALW plus anti-dsDNA IgG” value [1, 8] was “substantial decrease”. For the same sequence, the cell viability [2] was “no changes”, the cell viability [3] was “no changes” and the “inhibition of anti-dsDNA IgG binding to SOCS1-KIR peptide” value [4] was “inhibited”. For the same sequence, the “renal JAK2 protein expression level, ALW plus anti-dsDNA IgG” value [5] was “remarkable attenuation”, the “renal STAT1 protein expression level, ALW plus anti-dsDNA IgG” value [5] was “remarkable attenuation” and the “inhibition of anti-dsDNA IgG binding to DNA antigen” value [6] was “inherited the inhibitory property of the (natural) ALW”.
